Here are results for twelve compounds from publication PMC12276035, “Novel Para‐Phenylenediamine‐Based Derivatives as Receptor Tyrosine Kinase‐like Orphan Receptor 1 (ROR1) Inhibitors: An In Vitro Preliminary Characterization” (Chemmedchem, 2025).

Where two headings read alike, the source gives them in different places.

The target in assay [1] is T1, ROR1 kinase domain (Homo sapiens, UniProt Q01973).
T1 construct: recombinant human ROR1 protein (aa 453‐783, His&GST Tag); His; GST; purchased Elabscience
T1 sequence (Q01973 453-783): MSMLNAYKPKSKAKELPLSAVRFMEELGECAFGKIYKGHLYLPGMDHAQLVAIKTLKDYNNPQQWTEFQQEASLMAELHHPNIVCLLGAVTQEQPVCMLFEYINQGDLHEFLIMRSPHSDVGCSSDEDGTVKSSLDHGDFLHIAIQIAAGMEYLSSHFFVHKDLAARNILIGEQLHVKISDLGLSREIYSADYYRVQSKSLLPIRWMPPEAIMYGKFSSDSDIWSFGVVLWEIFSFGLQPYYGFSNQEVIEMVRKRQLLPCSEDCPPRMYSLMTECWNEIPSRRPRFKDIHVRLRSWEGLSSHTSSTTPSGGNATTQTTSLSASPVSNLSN
Nature of the assay: SPR assay on ROR1 kinase domain. The format is binding. The protocol: We performed molecular docking experiments to explore the binding mode of novel derivatives using the crystallographic structure of the protein co‐complexed with ponatinib, a known inhibitor of ROR1 (PDB code: 6TU9).^[ [30] ^] […] To evaluate the affinity of the synthesized molecules (10, 13, 14, 17–21, 26–29) for the protein counterpart, SPR assay was performed against kinase domain ROR1. Protein immobilization was achieved using the amide coupling method, and the molecules were tested at 10 different concentrations, ranging from 0 to 100 μM. Ponatinib was used as a positive control^[ [30] ^] (Table 1 ).
SPR spectroscopy analyses were conducted to evaluate the binding affinity of the synthesized compounds against ROR1 receptor using a Biacore T200 optical biosensor equipped with research‐grade CM5 sensor chips (Cytiva, Marlborough, USA). ROR1 kinase domain was immobilized on the CM5 sensor chip surface following standard amine‐coupling protocols. Specifically, kinasic domain was immobilized at pH 4.5 10 mM CH3COONa using a flow rate of 10 μL min^−1, achieving a density of around 20 kRU.
For the experiments, surfaces of ROR1, along with an unmodified reference surface, were prepared for simultaneous analyses. […] The compounds were injected in a series of concentrations (1:2 dilution, 10 different concentrations), spanning from 0 to 100 μM. The concentration series were prepared in 96‐well plates. SPR experiments were conducted at 25 °C, with a flow rate of 20 μL min^−1, allowing for 90 s of association monitoring and 400 s of dissociation monitoring. Changes in mass, reflective of the binding response, were recorded as resonance units (RU). K D values were determined using the Biaevaluation software performing a global fit of the double‐referenced association and dissociation data to a 1:1 interaction model^[ [43] ^] (see Figure S38, Supporting Information).
On the technique in general: In SPR one partner is held on a chip, and binding of the other changes the refractive index at the surface.

Assay [2] concerns SH‐SY5Y cells. Nature of the assay: MTT cell viability assay, SH‐SY5Y. It is filed as cell-based. The conditions noted are these: Homo sapiens, cytotoxicity, treated for 72 h, read-out: EC50 ± SD SH‐SY5Y. The protocol:
(§1) Cytotoxicity studies, assessing the activity of the synthetized compounds, were performed only on the molecules showing the best binding profile in the SPR assay. MTT test was performed on two cell lines known for overexpressing ROR1, particularly MTT assays were conducted on JeKo‐1 (human mantle cell lymphoma) and SH‐SY5Y (neuroblastoma), exposing them to different concentrations of compounds for 72 h (Table 2 ). […] This increased effectiveness is likely due to the high expression of the target protein in leukemia and other hematologic malignancies. […] A key structural difference in 18 and 19 compared to active compounds is the absence of the trifluoromethyl group on the aromatic ring. Indeed, the removal of the trifluoromethyl group (18) or the incorporation of an electron‐donating substituent (19) alters the interaction with the ATP‐binding pocket.
The neuroblastoma SH‐SY5Y cells, a human neuroblastoma cell line of neural crest origin, were obtained from ATCC and were grown in DMEM supplemented with 10% v/v fetal bovine serum, 2 mM L‐glutamine, 100 U mL^−1 penicillin, and 0.1 mg mL^−1 streptomycin.
(§2) Cell viability was established by measuring mitochondrial metabolic activity with MTT. In brief, SH‐SY5Y (20 × 10^3 cells/well) and JeKo‐1 (10 × 10^3 cells/well) were plated into 96‐well plates for 24 h, then the compounds (1.56–50 μM) were added. […], cells were replaced with a fresh medium containing 0.5 mg mL^−1 MTT.^[ [45] ^] Cells were incubated for 1–3 h at 37 °C, then the medium was discarded, and formazan blue crystals in the cells dissolved with 100 μL per well of a solution containing isopropanol/HCl 0.1 M. The absorbance was measured at 570 nm using a microplate reader (Multiskan Go, Thermo Scientific, Waltham, MA, USA). Cell viability was expressed as a percentage relative to the untreated cells cultured in medium with 0.1% DMSO and set to 100%, whereas 10% DMSO was used as positive control and set to 0% of viability. The EC50 values were calculated using GraphPad Prism 8.0 software by nonlinear regression of dose‐response inhibition.
A general note: Formazan colour is commonly taken as a measure of viable cells.

For assay [3], the system named is JeKo‐1 cells. Nature of the assay: MTT cell viability assay, JeKo‐1. It is filed as cell-based. As to conditions: Homo sapiens, cytotoxicity, treated for 72 h, read-out: EC50 ± SD JeKo‐1. As to the method:
as §1
The JeKo‐1 mantle cell lymphoma (MCL) cell line, derived from mantle cell lymphoma of B‐cell lineage, was obtained from ATCC and was grown in RPMI supplemented with 10% v/v fetal bovine serum, 2 mM L‐glutamine, 100 U mL^−1 penicillin, and 0.1 mg mL^−1 streptomycin.
as §2

Assay [4] deals with JeKo‐1 cells. Nature of the assay: Annexin V‐FITC/PI staining apoptosis, flow cytometry. As to conditions: JeKo‐1, 20 μM, 72 h, early and late apoptosis. It is filed as cell-based, human. The text has this: This observation aligns with previous studies reporting that ROR1 is highly expressed in B‐cell malignancies, including mantle cell lymphoma, where it plays a crucial role in survival signaling and resistance to apoptosis.^[ [10], [32] ^] Given the higher susceptibility of JeKo‐1 cells to the inhibitor, we selected this model for further apoptotic analysis. However, for completeness, apoptotic data for the SH‐SY5Y cell line are also provided in the Supporting Information (Figure S39, Supporting Information). Specifically, cells were incubated with compounds 17, 20, or 29 (20 μM) for 72 h and a flow cytometry analysis using Annexin V/PI staining was performed. After treatment, a very strong increase in the apoptotic response was observed, in both early and late apoptotic populations compared to the negative control (Figure 4 ). […] These findings are in accordance with the literature and further support the potential of ROR1 inhibition in promoting cell death in mantle cell lymphoma.^[ [33] ^]
Figure 4 Proapoptotic activity of compounds 17, 20, and 29 (20 μM) on JeKo‐1 cells treated for 72 h. A) Representative flow cytometry plots using Annexin V‐FITC/PI staining for apoptosis. B) Related quantitative analysis is reported. Data are expressed as a percentage of live, apoptotic, and necrotic cells. Results are shown as mean ± standard deviation (SD) from three independent experiments. *** denote p < 0.001 versus Ctrl.
Apoptosis of the cells was assessed using annexin V‐FITC/PI reagents. JeKo‐1 cells (60 × 10^3 cells/well) were seeded into 24‐well plates and incubated for 72 h with compounds (20 and 10 μM). After treatment, the collected cells were resuspended in a 100 μL assay buffer, then 5 Annexin V‐FITC and 1 PI reagents were added following incubation for 20 min at room temperature according to the manufacturer's protocol (Dead Cell Apoptosis Kits with Annexin V for Flow Cytometry, Thermo Fisher Scientific). Cells were analyzed with a Becton Dickinson FACScan flow cytometer using the Cell Quest software, version 4 (Franklin Lakes, NJ, USA).^[ [46] ^]
On the technique in general: Flow cytometry measures light scatter and fluorescence of single cells or particles in a stream.

Setting [5] is: SPR, KD ± SD, 0 to 100 μM, 25 °C, n.b. = no binding, read-out: Kinase domain KD.
Setting [6] is: SPR, KD ± SD, 0 to 100 μM, 25 °C, n.b. = no binding.

Regarding `O=C(NCc1ccc(-c2ccccc2)cc1)Nc1ccc(NC2CCNCC2)cc1C(F)(F)F` [Compound 29], the Kd in assay [1] (setting [5]) was found to be 13.4 ± 1.92 µM. The EC50 amounted to 18.5 ± 2.65 µM in assay [2] and 13.9 ± 2.75 µM in assay [3]. The compound also returned an apoptotic cells in assay [4] of 73.15 ± 2.76%.

For `N#CCCNc1ccc(NC(=O)NCc2ccc(-c3ccccc3)cc2)c(C(F)(F)F)c1` [Compound 10], the “Kinase domain KD” value in assay [1] (setting [6]) is on record as “n.b”.

On to `Nc1ccc(CNc2ccc(NS(=O)(=O)c3ccc(-c4ccccc4)cc3)c(C(F)(F)F)c2)cc1` [Compound 26], for which the “Kinase domain KD” value in assay [1] (setting [6]) is given as “n.b”.

Take `O=C(NCc1ccc(-c2ccccc2)cc1)Nc1ccc(NCc2ccncc2)cc1C(F)(F)F` [Compound 13]: the “Kinase domain KD” value in assay [1] (setting [6]) is reported as “n.b”.

Turning to `O=S(=O)(Nc1ccc(NCC2CCNCC2)cc1C(F)(F)F)c1ccc(-c2ccccc2)cc1` [Compound 27], in assay [1] (setting [6]), the “Kinase domain KD” value is recorded as “n.b”.

On to `Nc1ccc(CNc2ccc(NC(=O)NCc3ccc(-c4ccccc4)cc3)c(C(F)(F)F)c2)cc1` [Compound 21], for which the “Kinase domain KD” value in assay [1] (setting [6]) is recorded as “n.b”.

Turning to `COc1cc(NCC2CCNCC2)ccc1NC(=O)NCc1ccc(-c2ccccc2)cc1` [Compound 19], the Kd in assay [1] (setting [5]) came out at 15 ± 2.47 µM. For the same compound, the EC50 in assay [2] and in assay [3] was greater than 50 µM each time.

Consider `NCCCNc1ccc(NC(=O)NCc2ccc(-c3ccccc3)cc2)c(C(F)(F)F)c1` [Compound 20], for which the Kd in assay [1] (setting [5]) came to 16.7 ± 2.86 µM. Moreover, the EC50 was found to be 14.2 ± 4.81 µM in assay [2] and 11.3 ± 3.15 µM in assay [3]. This compound yielded an apoptotic cells in assay [4] of 94.50 ± 3.12%.

As to `O=C(Nc1ccc(NCC2CCNCC2)cc1C(F)(F)F)c1ccc(-c2ccccc2)cc1` [Compound 28], the “Kinase domain KD” value in assay [1] (setting [6]) is recorded as “n.b”.

As to `O=C(NCc1ccc(-c2ccccc2)cc1)Nc1ccc(NCC2CCNCC2)cc1` [Compound 18], in assay [1] (setting [5]), the Kd came to 18.4 ± 3.14 µM. The EC50 in assay [2] and in assay [3] was greater than 50 µM in each case.

In the case of `Cc1ccc(C(=O)Nc2ccc(CN3CCN(C)CC3)c(C(F)(F)F)c2)cc1C#Cc1cnc2cccnn12` [Ponatinib, 3‐(2‐imidazo[1,2‐b]pyridazin‐3‐ylethynyl)‐4‐methyl‐N‐[4‐[(4‐methylpiperazin‐1‐yl)methyl]‐3‐(trifluoromethyl)phenyl]benzamide, reference compound], the Kd in assay [1] worked out at 2.9 ± 0.85 µM. The EC50 in assay [2] was determined as 4.25 ± 3.92 µM; in assay [3], 1.69 ± 1.03 µM.

Turning to `N#CCCNc1ccc(NC(=O)NCc2ccc(C(F)(F)F)cc2)cc1` [Compound 14], the “Kinase domain KD” value in assay [1] (setting [6]) is reported as “n.b”.

As usually defined, the Kd is the free concentration of one partner at which half of the binding sites on the other are occupied at equilibrium, for simple one-to-one binding. As usually defined, the EC50 is the concentration needed to bring the measured effect to its halfway point.
